# Source: patent US20080139536A1, “Benzodiazepines for Treating or Preventing Rsv Infection” (Novartis Pharmaceuticals Corporation, priority 2004, published 2008)
# pIC50: −log10 of the molar value.
# Test system: RSV (RSS strain)
# Assay: RSV ELISA antigen reduction assay in Hep-2 cells
# Format: cell-based, Respiratory Syncytial Virus
# Conditions: RSV-infected Hep-2 cells, 3 day assay, ELISA OD 490 nm, 7-point dilution 50 μM-0.78 μM
# Description: This was quantified by optical density (OD) measurement.
# This assay was set up using all 96 wells of flat-bottomed 96-well plates. The outer wells were not subjected to any greater amount of evaporation than the inner wells during the 3 day assay period. (i.e. No “edge effect” seen).
# Plates were set up one day before addition of virus and compounds. The assay then ran for 3 days with ELISA development taking place on the 4th day.
# All 96 wells of a microtitre plate were seeded at a density of 4×10^3 Hep-2 cells/well in 100 μl/well of Growth Medium (GM) consisting of Dulbecco's MEM (DMEM) with Glutamax-1, Sodium Pyruvate, 1000 mg/l glucose and pyridoxine (Invitrogen, catalogue number 21885-025) and supplemented with 10% FBS. (See Plate 1).
# A frozen vial of RSV (RSS strain provided by Virogen Ltd) stock solution was removed from the −80 freezer or liquid nitrogen store and diluted to a known Multiplicity of Infection (m.o.i) in Growth Medium.
# The m.o.i. was calculated by prior titration of the virus stock (by the ELISA assay method) as the virus input required to achieve a window of at least 0.8 OD units between infected and uninfected control wells.
# 50 μl of diluted virus was added to infected, “virus+”, wells by multichannel pipette; 50 μl of Growth Medium was added to uninfected, cell control wells (CC) by multichannel pipette. (See Plate 2)
# Plates were incubated at 37° C. for 1 hr to allow virus adsorption.
# Compounds were made up at 4× strength in GM containing 2% DMSO (a final DMSO concentration in the assay of 0.5%).
# Six compounds were tested on each assay plate as illustrated below. (See Plate 3). Compounds were tested in duplicate wells across a 7-point dilution series (from 50 μM-0.78 μM): in the presence of virus.
# Virus infected, untreated wells served as the virus control (VC); Uninfected, untreated wells serve as the cell control (CC). The difference in absorbance between CC and VC wells constitutes the assay window.
# 200 μl of GM containing 2% DMSO was added to all wells except the ‘50 μM’ or first column, to which 392 μl of GM was added. 8 μl of each test compound was cherry-picked from a thawed Arrow screening plate and transferred to the appropriate well in the ‘50 μM’ column. Since the compound stock was at 10 mM in 100% DMSO, this will maintain the DMSO level at 2% at the top compound concentration.
# Using a multichannel pipette, 200 μl was transferred from the 50 μM column to the 25 μM column, then to the 12.5 μM column and so on across the dilution plate creating a serial doubling dilution. Compounds were mixed upon transfer and tips changed between transfers, ensuring also that no compound was transferred to the last column of compound-free wells (0 μM).
# The dilution plate was turned lengthways and 50 μl of compound easily transferred by multichannel pipette from the dilution plate to the assay plate, column by column. There was therefore an excess of 100 μl remaining in the dilution plate.
# Plates were incubated at 37° C., 5% CO2 for 3 days.
# Media was tapped out from wells directly into Virkon (1% solution in water) and plates were washed by immersing in a plastic box containing PBS. 50 μl/well of 75%/25% vol/vol acetone/methanol fixative was added by multichannel pipette and left for 3 mins.
# Some 200 μl of blocking solution (2% Marvel in PBS containing 0.05% Tween) was added per well by multichannel pipette. Plates were incubated at 37° C. in a shaking incubator for 60 mins.
# RSV mouse monoclonal antibody NCL-RSV3 (Novocastra) was diluted 1/400 in PBS/2% Marvel/0.05% Tween and 50 μl was added per well. Plates were incubated at 37° C. in a shaking incubator for 90 mins.
# DAKo rabbit anti-mouse HRP conjugate (DAKO catalogue number P0260) was diluted 1/1000 in PBS/2% Marvel/0.05% Tween and 50 μl was added per well. Plates were incubated at 37° C. in a shaking incubator for 60 mins.
# Substrate (SigmaFast OPD) was prepared in advance by dissolving 1 urea tablet in 20 mL water. […]
# [1] = human respiratory syncytial virus, 72 h
SMILES,pIC50 [1],pIC50
"CN1CCN(c2ccc(C(=O)NC3N=C(c4ccccc4)c4ccccc4NC3=O)cn2)CC1 (racemic) [Example 1, 6-(4-Methyl-piperazin-1-yl)-N-(2-oxo-5-phenyl-2,3-dihydro-1H-benzo[e][1,4]diazepin-3-yl)-nicotinamide]",5.00 to 5.30,–
"O=C(NC1N=C(c2ccccc2)c2ccccc2NC1=O)c1ccc(N2CCCCC2)nc1 (racemic) [Example 2, 3,4,5,6-Tetrahydro-2H-[1,2′]bipyridinyl-5′-carboxylic acid (2-oxo-5-phenyl-2,3-dihydro-1H-benzo[e][1,4]diazepin-3-yl)-amide]",5.00 to 5.30,–
"O=C(NC1N=C(c2ccccc2)c2ccccc2NC1=O)c1ccccc1N1CCOCC1 (racemic) [Example 50, 2-Morpholin-4-yl-N-(2-oxo-5-phenyl-2,3-dihydro-1H-benzo[e][1,4]diazepin-3-yl)-benzamide]",> 5.30,–
"O=C(Nc1ccc(Oc2ccccc2)cc1)NC1N=C(c2ccccc2)c2ccccc2NC1=O (racemic) [Example 52, 1-(2-Oxo-5-phenyl-2,3-dihydro-1H-benzo[e][1,4]diazepin-3-yl)-3-(4-phenoxy-phenyl)-urea]",5.00 to 5.30,–
O=C(N[C@H]1N=C(c2ccccc2)c2ccccc2NC1=O)c1ccccc1N1CCS(=O)(=O)CC1 [Example 3],–,5.00 to 5.30
"O=C(N[C@H]1N=C(c2ccccc2)c2ccccc2NC1=O)c1ccc(N2CCOCC2)cc1Cl [Example 4, (S)-2-Chloro-4-morpholin-4-yl-N-(2-oxo-5-phenyl-2,3-dihydro-1H-benzo[e][1,4]diazepin-3-yl)-benzamide]",> 5.30,–
"O=C(N[C@H]1N=C(c2ccccc2)c2ccccc2NC1=O)c1cc(Cl)ccc1N1CCS(=O)(=O)CC1 [Example 6, (S)-5-Chloro-2-(1,1-dioxo-1λ6-thiomorpholin-4-yl)-N-(2-oxo-5-phenyl-2,3-dihydro-1H-benzo[e][1,4]diazepin-3-yl)-benzamide]",5.00 to 5.30,–
"CN1CCN(Cc2ccc(C(=O)N[C@H]3N=C(c4ccccc4)c4ccccc4NC3=O)o2)CC1 [Example 8, (S)-5-(4-Methyl-piperazin-1-ylmethyl)-furan-2-carboxylic acid (2-oxo-5-phenyl-2,3-dihydro-1H-benzo[e][1,4]diazepin-3-yl)-amide]",> 5.30,–
"O=C(N[C@H]1N=C(c2ccccc2)c2ccccc2NC1=O)c1ccc(CN2CCCCC2)o1 [Example 10, (S)-5-Piperidin-1-ylmethyl-furan-2-carboxylic acid (2-oxo-5-phenyl-2,3-dihydro-1H-benzo[e][1,4]diazepin-3-yl)-amide]",> 5.30,–
"CN(C)Cc1ccc(C(=O)N[C@H]2N=C(c3ccccc3)c3ccccc3NC2=O)o1 [Example 11, (S)-5-Dimethylaminomethyl-furan-2-carboxylic acid (2-oxo-5-phenyl-2,3-dihydro-1H-benzo[e][1,4]diazepin-3-yl)-amide]",> 5.30,–
"O=C(N[C@H]1N=C(c2ccccc2)c2ccccc2NC1=O)c1ccc(F)cc1N1CCCCC1 [Example 12, (S)-4-Fluoro-N-(2-oxo-5-phenyl-2,3-dihydro-1H-benzo[e][1,4]diazepin-3-yl)-2-piperidin-1-yl-benzamide]",5.00 to 5.30,–
"O=C(N[C@H]1N=C(c2ccccc2)c2ccccc2NC1=O)c1ccc(F)cc1N1CCOCC1 [Example 13, (S)-4-Fluoro-2-morpholino-4-yl-N-(2-oxo-5-phenyl-2,3-dihydro-1H-benzo[e][1,4]diazepin-3-yl)-benzamide]",–,5.00 to 5.30
"O=C(N[C@H]1N=C(c2ccccc2)c2ccccc2NC1=O)c1ccc(C(F)(F)F)cc1N1CCCC1 [Example 16, (S)—N-(2-Oxo-5-phenyl-2,3-dihydro-1H-benzo[e][1,4]diazepin-3-yl)-2-pyrrolidin-1-yl-4-trifluoromethyl-benzamide]",5.00 to 5.30,–
"O=C(N[C@H]1N=C(c2ccccc2)c2ccccc2NC1=O)c1ccc(C(F)(F)F)cc1N1CCCCC1 [Example 17, (S)—N-(2-Oxo-5-phenyl-2,3-dihydro-1H-benzo[e][1,4]diazepin-3-yl)-2-piperidin-1-yl-4-trifluoromethyl-benzamide]",5.00 to 5.30,–
"O=C(N[C@H]1N=C(c2ccccc2)c2ccccc2NC1=O)c1ccc(C(F)(F)F)cc1N1CCOCC1 [Example 18, (S)-2-Morpholin-4-yl-N-(2-oxo-5-phenyl-2,3-dihydro-1H-benzo[e][1,4]diazepin-3-yl)-4-trifluoromethyl-benzamide]",> 5.30,–
"O=C(N[C@H]1N=C(c2ccccc2)c2ccccc2NC1=O)c1cc(C(F)(F)F)ccc1N1CCCC1 [Example 19, (S)—N-(2-Oxo-5-phenyl-2,3-dihydro-1H-benzo[e][1,4]diazepin-3-yl)-2-pyrrolidin-1-yl-5-trifluoromethyl-benzamide]",> 5.30,–
"O=C(N[C@H]1N=C(c2ccccc2)c2ccccc2NC1=O)c1cc(C(F)(F)F)ccc1N1CCOCC1 [Example 20, (S)-2-Morpholin-4-yl-N-(2-oxo-5-phenyl-2,3-dihydro-1H-benzo[e][1,4]diazepin-3-yl)-5-trifluoromethyl-benzamide]",< 5.00,–
"Cc1cccc(C(=O)N[C@H]2N=C(c3ccccc3)c3ccccc3NC2=O)c1N1CCS(=O)(=O)CC1 [Example 23, (S)-2-(1,1-Dioxo-1λ6-thiomorpholin-4-yl)-3-methyl-N-(2-oxo-5-phenyl-2,3-dihydro-1H-benzo[e][1,4]diazepin-3-yl)-benzamide]",> 5.30,–
"Cc1ccc(C(=O)N[C@H]2N=C(c3ccccc3)c3ccccc3NC2=O)c(N2CCS(=O)(=O)CC2)c1 [Example 24, (S)-2-(1,1-Dioxo-1λ6-thiomorpholin-4-yl)-4-methyl-N-(2-oxo-5-phenyl-2,3-dihydro-1H-benzo[e][1,4]diazepin-3-yl)-benzamide]",> 5.30,–
"Cc1cccc(N2CCS(=O)(=O)CC2)c1C(=O)N[C@H]1N=C(c2ccccc2)c2ccccc2NC1=O [Example 25, (S)-2-(1,1-Dioxo-1λ6-thiomorpholin-4-yl)-6-methyl-N-(2-oxo-5-phenyl-2,3-dihydro-1H-benzo[e][1,4]diazepin-3-yl)-benzamide]",< 5.00,–
"O=C(N[C@H]1N=C(c2ccccc2)c2ccccc2NC1=O)c1c(Cl)cccc1N1CCS(=O)(=O)CC1 [Example 26, (S)-2-Chloro-6-(1,1-dioxo-1,6-thiomorpholin-4-yl)-N-(2-oxo-5-phenyl-2,3-dihydro-1H-benzo[e][1,4]diazepin-3-yl)-benzamide]",–,> 5.30
"O=C1Nc2ccccc2C(c2ccccc2)=N[C@@H]1NC(=O)n1c(=O)n(C2CC2)c2ncccc21 [Example 27, (S)-3-Cyclopropyl-2-oxo-2,3-dihydro-imidazo[4,5-b]pyridine-1-carboxylic acid (2-oxo-5-phenyl-2,3-dihydro-1H-benzo[e][1,4]diazepin-3-yl)-amide]",< 5.00,–
"CN1CCN(S(=O)(=O)c2cccc(C(=O)N[C@H]3N=C(c4ccccc4)c4ccccc4NC3=O)c2)CC1 [Example 28, (S)-3-(4-Methyl-piperazine-1-sulfonyl)-N-(2-oxo-5-phenyl-2,3-dihydro-1H-benzo[e][1,4]diazepin-3-yl)-benzamide]",< 5.00,–
"CN1CCN(c2ccc(C(=O)N[C@H]3N=C(c4ccccc4)c4ccccc4NC3=O)cc2)CC1 [Example 29, (S)-4-(4-Methyl-piperazin-1-yl)-N-(2-oxo-5-phenyl-2,3-dihydro-1H-benzo[e][1,4]diazepin-3-yl)-benzamide]",> 5.30,–
